Results on 18 compounds are retold here after patent publication US20100069341A1, “TETRAHYDRO-PYRANOPYRAZOLE CANNABINOID MODULATORS” (priority 2005, published 2010).

Like-named read-outs stand apart in the source and are kept apart here.

In assay [1] the target is T1, Cannabinoid CB1 Receptor (Homo sapiens, UniProt P21554).
T1 construct: expressed in transfected cells; semi-purified membrane pellet
The assay can be described thus: Binding assay, cannabinoid CB1 receptor ([3H]-CP-55,940 displacement, SK-N-MC cell membranes). The conditions noted are these: for inhibition at 0.2 µM: read-out: Cannabinoid CB1 Receptor Binding, percent inhibition. On the procedure: (§1) Binding Assay for CB1 or CB2 Agonists or Inverse Agonists
(§2) The human CB1 and CB2 receptors were stably expressed in SK-N-MC cells transfected with pcDNA3 CB-1 (human) or pcDNA3 CB-2 (human). The cells were grown in T-180 cell culture flasks under standard cell culture conditions at 37° C. in a 5% CO2 atmosphere. The cells were harvested by trysinization and homogenized in a homogenization buffer (10 mM Tris, 0.2 mM MgCl2, 5 mM KCl, with protease inhibitors aprotinin, leupeptin, pepstatin A and bacitracin) and centrifuged (2000 g). The supernatant was then centrifuged in 2M sucrose (31,300 g) to produce a semi-purified membrane pellet. The pellet was resuspended in homogenization and store at −80° C.
On the day of the assay, the pellet was thawed on ice and diluted in assay buffer (50 mM Tris-HCl, 5 mM MgCl2, 2.5 mM EDTA, 0.5 mg/mL fatty acid free bovine serum albumin, pH 7.5). […] The plate was covered and incubated for 90 minutes at 30° C. The contents were then aspirated onto a Packard Unifilter GF/C filter bottom plate prewet with 0.5% polyethyleneimine. The wells of the polypropylene plate were rinsed and aspirated seven times with a 0.9% saline-0.5% Tween 20 solution. The Unifilter plate was dried, a scintillation cocktail was added to each well and the counts representing binding were quantitated in a TopCount scintillation counter.
For compounds tested, an IC50 binding value was obtained from percent inhibition studies in which various test concentrations were used. The binding value (in μM) was calculated by linear regression.

In assay [2] the target is T2, Cannabinoid CB2 Receptor (Homo sapiens, UniProt P34972).
T2 construct: expressed in transfected cells; semi-purified membrane pellet
T2 sequence (P34972 whole entry): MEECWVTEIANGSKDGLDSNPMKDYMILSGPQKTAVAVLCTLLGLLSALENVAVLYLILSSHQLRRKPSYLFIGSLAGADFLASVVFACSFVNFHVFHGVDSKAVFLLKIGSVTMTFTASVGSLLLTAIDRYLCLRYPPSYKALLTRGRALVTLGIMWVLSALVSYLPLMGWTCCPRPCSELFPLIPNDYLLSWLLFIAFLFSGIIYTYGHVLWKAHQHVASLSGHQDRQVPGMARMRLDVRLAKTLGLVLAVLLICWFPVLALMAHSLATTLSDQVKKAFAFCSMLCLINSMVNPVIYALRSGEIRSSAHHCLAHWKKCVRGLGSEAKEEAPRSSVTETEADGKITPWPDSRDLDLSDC
The assay can be described thus: Binding assay, cannabinoid CB2 receptor ([3H]-CP-55,940 displacement, SK-N-MC cell membranes). The settings on record: test concentration of 0.2 μM; human CB2 in SK-N-MC membranes; read-out: Cannabinoid CB2 Receptor Binding, percent inhibition. On the procedure: as §1, §2
On the day of the assay, the pellet was thawed on ice and diluted in assay buffer (50 mM Tris-HCl, 5 mM MgCl2, 2.5 mM EDTA, 0.5 mg/mL fatty acid free bovine serum albumin, pH 7.5). The diluted membrane was added with buffer, test compound or standard and the radioligand [H]^3+-CP-55,940 (0.2 nM) to the wells of a 96-well polypropylene plate. Non-specific binding was measured in wells containing 10 uM WIN 55,212. The plate was covered and incubated for 90 minutes at 30° C. The contents were then aspirated onto a Packard Unifilter GF/C filter bottom plate prewet with 0.5% polyethyleneimine. The wells of the polypropylene plate were rinsed and aspirated seven times with a 0.9% saline-0.5% Tween 20 solution. The Unifilter plate was dried, a scintillation cocktail was added to each well and the counts representing binding were quantitated in a TopCount scintillation counter.
For compounds tested, an IC50 binding value was obtained from percent inhibition studies in which various test concentrations were used. The binding value (in μM) was calculated by linear regression. For compounds without an IC50 binding value, the percent inhibition (in %) was obtained at a test concentration of 0.2 μM.

Setting [3] is: test concentration of 0.2 μM, human CB1 in SK-N-MC membranes.

T1 sequence (P21554 whole entry): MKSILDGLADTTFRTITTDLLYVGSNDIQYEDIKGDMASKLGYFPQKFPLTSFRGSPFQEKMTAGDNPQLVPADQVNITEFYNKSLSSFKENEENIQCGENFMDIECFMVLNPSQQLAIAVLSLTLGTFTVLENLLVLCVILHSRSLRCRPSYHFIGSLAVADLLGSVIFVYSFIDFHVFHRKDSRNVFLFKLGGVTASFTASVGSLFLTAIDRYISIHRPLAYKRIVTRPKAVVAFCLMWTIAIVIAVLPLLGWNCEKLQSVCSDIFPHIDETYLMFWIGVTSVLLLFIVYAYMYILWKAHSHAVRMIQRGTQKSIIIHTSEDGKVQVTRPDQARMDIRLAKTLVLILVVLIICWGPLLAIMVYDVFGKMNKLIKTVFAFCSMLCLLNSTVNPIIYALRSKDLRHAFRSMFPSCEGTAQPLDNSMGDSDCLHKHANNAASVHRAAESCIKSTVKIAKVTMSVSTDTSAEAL

For the compound `O=C(NCc1ccccn1)c1nn(-c2ccc(Cl)cc2Cl)c2c1COC/C2=C\c1ccc(F)cc1` [Cpd 6, (7Z)-1-(2,4-dichloro-phenyl)-7-(4-fluoro-benzylidene)-1,4,6,7-tetrahydro-pyrano[4,3-c]pyrazole-3-carboxylic acid (pyridin-2-ylmethyl)-amide], the figures for the inhibition at 0.2 µM in assay [1] (setting [3]) and in assay [2] were 37% and 25%, respectively.

In the case of `CC1CCCC(C)N1NC(=O)c1nn(-c2ccc(Cl)cc2Cl)c2c1COC/C2=C\c1ccc(Cl)s1` (stereo not shown) [Cpd 55, (7Z)-7-(5-chloro-thiophen-2-ylmethylene)-1-(2,4-dichloro-phenyl)-1,4,6,7-tetrahydro-pyrano[4,3-c]pyrazole-3-carboxylic acid (2,6-dimethyl-piperidin-1-yl)-amide], the inhibition – broadly, the percentage by which the read-out fell short of the control – at 0.2 µM in assay [1] (setting [3]) was 65%; in assay [2] it was 11%.

For the compound `O=C(NNC1CCCCC1)c1nn(-c2ccc(Cl)cc2Cl)c2c1COC/C2=C\c1ccc(F)cc1` [Cpd 29, (7Z)-1-(2,4-dichloro-phenyl)-7-(4-fluoro-benzylidene)-1,4,6,7-tetrahydro-pyrano[4,3-c]pyrazole-3-carboxylic acid N′-cyclohexyl-hydrazide], the values for the inhibition at 0.2 µM in assay [1] (setting [3]) and in assay [2] were 52% and 0%, respectively.

In the case of `C[C@@H](NC(=O)c1nn(-c2ccc(Cl)cc2Cl)c2c1COC/C2=C\c1cccs1)C1CCCCC1` [Cpd 33, (7Z)-1-(2,4-dichloro-phenyl)-7-thiophen-2-ylmethylene-1,4,6,7-tetrahydro-pyrano[4,3-c]pyrazole-3-carboxylic acid [(R)-1-cyclohexyl-ethyl]-amide], in assay [1], the IC50 (in general, the concentration at which inhibition is half-maximal) was 10 nM. The figures for the inhibition at 0.2 µM in assay [1] (setting [3]) and in assay [2] were 88% and 15%, respectively.

Compound `O=C(NN1CCCCC1)c1nn(-c2ccc(Cl)cc2Cl)c2c1COC/C2=C\c1ccsc1` [Cpd 43, (7Z)-1-(2,4-dichloro-phenyl)-7-thiophen-3-ylmethylene-1,4,6,7-tetrahydro-pyrano[4,3-c]pyrazole-3-carboxylic acid piperidin-1-ylamide] yielded an IC50 in assay [1] of 30 nM. Further, the figures for the inhibition at 0.2 µM in assay [1] (setting [3]) and in assay [2] were 83% and 19%, respectively.

With `O=C(NN1CC2CCCC2C1)c1nn(-c2ccc(Cl)cc2Cl)c2c1COC/C2=C\c1cccs1` (stereo not shown) [Cpd 38, (7Z)-1-(2,4-dichloro-phenyl)-7-thiophen-2-ylmethylene-1,4,6,7-tetrahydro-pyrano[4,3-c]pyrazole-3-carboxylic acid (hexahydro-cyclopenta[c]pyrrol-2-yl)-amide], the IC50 in assay [1] worked out at 30 nM. The inhibition at 0.2 µM in assay [1] (setting [3]) worked out at 79%; in assay [2], 16%.

With `CC1CCCC(C)N1NC(=O)c1nn(-c2ccc(Cl)cc2Cl)c2c1COC/C2=C\c1cccs1` (stereo not shown) [Cpd 37, (7Z)-1-(2,4-dichloro-phenyl)-7-thiophen-2-ylmethylene-1,4,6,7-tetrahydro-pyrano[4,3-c]pyrazole-3-carboxylic acid (2,6-dimethyl-piperidin-1-yl)-amide], the inhibition at 0.2 µM is 61% in assay [1] (setting [3]) and 20% in assay [2].

The compound `C[C@@H](NC(=O)c1nn(-c2ccc(Cl)cc2Cl)c2c1COC/C2=C\c1ccc(F)cc1)c1ccccc1` [Cpd 2, (7 Z)-1-(2,4-dichloro-phenyl)-7-(4-fluoro-benzylidene)-1,4,6,7-tetrahydro-pyrano[4,3-c]pyrazole-3-carboxylic acid [(1R)-1-phenyl-ethyl]-amide] yielded an IC50 in assay [1] of 13 nM. For the same compound, the inhibition at 0.2 µM was determined as 87% in assay [1] (setting [3]) and 23% in assay [2].

With `O=C(NN1CCCC1)c1nn(-c2ccc(Cl)cc2Cl)c2c1COC/C2=C\c1ccc(Cl)o1` [Cpd 72, (7Z)-7-(5-chloro-furan-2-ylmethylene)-1-(2,4-dichloro-phenyl)-1,4,6,7-tetrahydro-pyrano[4,3-c]pyrazole-3-carboxylic acid pyrrolidin-1-ylamide], the figures for the inhibition at 0.2 µM in assay [1] (setting [3]) and in assay [2] were 48% and 8%, respectively.

Consider `O=C(NN1CCCCC1)c1nn(-c2ccc(Cl)cc2)c2c1COC/C2=C\c1ccc(F)cc1` [Cpd 11, (7Z)-1-(4-chloro-phenyl)-7-(4-fluoro-benzylidene)-1,4,6,7-tetrahydro-pyrano[4,3-c]pyrazole-3-carboxylic acid piperidin-1-ylamide], for which the inhibition at 0.2 µM in assay [1] (setting [3]) came out at 55%; in assay [2], 6%.

Compound `O=C(NN1CC2CCCC2C1)c1nn(-c2ccc(Cl)cc2Cl)c2c1COC/C2=C\c1ccsc1` (stereo not shown) [Cpd 45, (7Z)-1-(2,4-dichloro-phenyl)-7-thiophen-3-ylmethylene-1,4,6,7-tetrahydro-pyrano[4,3-c]pyrazole-3-carboxylic acid (hexahydro-cyclopenta[c]pyrrol-2-yl)-amide] gave an IC50 in assay [1] of 20 nM. Besides, the figures for the inhibition at 0.2 µM in assay [1] (setting [3]) and in assay [2] were 84% and 19%, respectively.

For the compound `O=C(N[C@H](CO)c1ccccc1)c1nn(-c2ccc(Cl)cc2Cl)c2c1COC/C2=C\c1ccsc1` [Cpd 48, (7Z)-1-(2,4-dichloro-phenyl)-7-thiophen-3-ylmethylene-1,4,6,7-tetrahydro-pyrano[4,3-c]pyrazole-3-carboxylic acid [(1S)-2-hydroxy-1-phenyl-ethyl]-amide], the values for the inhibition at 0.2 µM in assay [1] (setting [3]) and in assay [2] were 36% and 17%, respectively.

Take `O=C(NN1CCN(CCO)CC1)c1nn(-c2ccc(Cl)cc2Cl)c2c1COC/C2=C\c1ccc(F)cc1` [Cpd 31, (7Z)-1-(2,4-dichloro-phenyl)-7-(4-fluoro-benzylidene)-1,4,6,7-tetrahydro-pyrano[4,3-c]pyrazole-3-carboxylic acid [4-(2-hydroxy-ethyl)-piperazin-1-yl]-amide]: the inhibition at 0.2 µM was determined as 10% in assay [1] (setting [3]) and 15% in assay [2].

In the case of `O=C(c1nn(-c2ccc(Cl)cc2Cl)c2c1COC/C2=C\c1ccc(F)cc1)N1CCC[C@H]1CO` [Cpd 21, (7Z)-[1-(2,4-dichloro-phenyl)-7-(4-fluoro-benzylidene)-1,4,6,7-tetrahydro-pyrano[4,3-c]pyrazol-3-yl]-[(2S)-2-hydroxymethyl-pyrrolidin-1-yl]-methanone], the inhibition at 0.2 µM was 59% in assay [1] (setting [3]) and 15% in assay [2].

Turning to `C[C@H](NC(=O)c1nn(-c2ccc(Cl)cc2Cl)c2c1COC/C2=C\c1ccsc1)c1ccccc1` [Cpd 42, (7Z)-1-(2,4-dichloro-phenyl)-7-thiophen-3-ylmethylene-1,4,6,7-tetrahydro-pyrano[4,3-c]pyrazole-3-carboxylic acid [(S)-1-phenyl-ethyl]-amide], the values for the inhibition at 0.2 µM in assay [1] and in assay [2] were 57% and 16%, respectively.

For the compound `O=C(NN1CC2CCCC2C1)c1nn(-c2ccc(Cl)cc2Cl)c2c1COCC2Cc1ccc(F)cc1` (stereo not shown) [Cpd 22, 1-(2,4-dichloro-phenyl)-7-(4-fluoro-benzyl)-1,4,6,7-tetrahydro-pyrano[4,3-c]pyrazole-3-carboxylic acid (hexahydro-cyclopenta[c]pyrrol-2-yl)-amide], the inhibition at 0.2 µM in assay [1] (setting [3]) was 66%; in assay [2], 18%.

For `C[C@@H](NC(=O)c1nn(-c2ccc(Cl)cc2Cl)c2c1COC/C2=C\c1cccs1)c1ccccc1` [Cpd 32, (7Z)-1-(2,4-dichloro-phenyl)-7-thiophen-2-ylmethylene-1,4,6,7-tetrahydro-pyrano[4,3-c]pyrazole-3-carboxylic acid [(R)-1-phenyl-ethyl]-amide], in assay [1], the IC50 is 20 nM. For the same compound, the inhibition at 0.2 µM was determined as 76% in assay [1] (setting [3]) and 11% in assay [2].

`O=C(NN1CC2CCCC2C1)c1nn(-c2ccc(Cl)cc2Cl)c2c1COC/C2=C\c1ccc(Cl)o1` (stereo not shown) [Cpd 71, (7Z)-7-(5-chloro-furan-2-ylmethylene)-1-(2,4-dichloro-phenyl)-1,4,6,7-tetrahydro-pyrano[4,3-c]pyrazole-3-carboxylic acid (hexahydro-cyclopenta[c]pyrrol-2-yl)-amide] registered an IC50 in assay [1] of 40 nM. Moreover, the inhibition at 0.2 µM is 71% in assay [1] (setting [3]) and 17% in assay [2].
